Assay results taken from patent US5134150A, “Inhibition of the 5-lipoxygenase pathway” (priority 1989, dated 1992).
Where two headings read alike, the source gives them in different places.

How the values were obtained:
[1] = tested on: Infiltration of Polymorphonuclear Leukocytes into Sites of Carrageenan-Induced Inflammation; assay: Mouse carrageenan peritonitis (PMN infiltration); type: in vivo, mouse (male Balb/c); details: for PMN infiltration, result in words: carrageenan peritonitis, mice
Source text: (§1) In the following Examples where mice were used, they were male Balb/c mice (20-28 g), and where rats were used, they were male Lewis rats (180-210 g). All mice and rats were obtained from Charles River Breeding Laboratories, Kingston, N.Y. Within a single experiment, mice and rats were sex and age matched.
(§2) The compounds of Formula (I) were used either as the free base or in the appropriate salt form. Levamisole was used as the hydrochloride salt. The compounds were homogenized in 0.5% tragacanth. Compounds were administered by gavage at the indicated dose in a final volume of 10 ml/kg. Nordihydroguaiaretic acid (NDGA) was solubilized in dimethylacetamide and diluted with olive oil for subcutaneous administration.
Mice were pretreated with either the test compound or vehicle one hour before the intraperitoneal injection of a 1.0% carrageenan suspension in saline (0.2 ml/mouse). Mice were sacrificed by cervical dislocation two hours after injection, and 3.0 ml of phosphate buffered saline, without Ca^++ or Mg^++, was injected into the peritoneum. Following massage, a 2.0 ml aliquot of the lavage fluid was removed, and the total cell count determined on a Coulter counter and differential cell count determined by microscopic examination of Giesma-stained slides.

[2] = tested on: 5-lipoxygenase and LTA4 synthetase; assay: Di-HETE / LTB4 production by high speed supernatant of RBL-1 cells; type: biochemical; details: RBL-1 high speed supernatant; Table 9A; read-out: 5-LO IC50 (LTB4 production)
Method: For in vitro experiments, compounds were dissolved at appropriate concentrations in ethanol or DMSO (dimethylsulfoxide) (final concentration≤1.0%) and then diluted to final concentrations using the buffers indicated in the text.
The activities of these enzymes in extracts of RBL-1 cells were assayed using the method of Jakschik and Lee, Nature, 287, 51-52 (1980). RBL-1 cells were obtained from the American Type Culture Collection (#CRL 1378) and were grown at 37° C. (5% CO2 in air) in spinner culture in MEM supplemented with 10% heat inactivated fetal calf serum. Harvested cells were washed with 50 mM sodium phosphate buffer, pH 7.0, containing 1 mM EDTA and 0.1% gelatin, resuspended in fresh buffer (5×10^7 cells/ml) and disrupted by nitrogen cavitation using the Parr bomb at 750 psi for 10 min. The broken cell extract was then centrifuged at 10,000× g for 20 minutes (min) and the supernatant centrifuged at 100,000 xIg for 60 min. Aliquots (0.25 mls) of the supernatant were preincubated with or without drugs for 10 min, after which 10 μl CaCl2 (50 mM) was added and the reaction was initiated with 2.5 μl of 2.5 mM arachidonic acid-1-^14 C (final concentration was 25 μM; specific activity 20,000 dpm/nmole). After incubation for 3 min at 37° C., the reaction was terminated by addition of 2 volumes (0.5 ml) ice cold acetone and the sample was allowed to deproteinize on ice for 10 min prior to centrifugation at 1,000× g for 10 min. The deproteinized supernatant was adjusted to pH 3.5 with 2N formic acid and extracted with 2 volumes of ice cold ethyl acetate. The extracted samples were dried under argon, redissolved in ethyl acetate and applied to Whatman LK5D thin layer chromatography (TLC) plates which were developed using the A-9 solvent system [organic phase of ethyl acetate: 2,2,5-trimethylpentane:acetic acid: water (110:50:20:10)] described by Hamberg and Samuelsson, J. Biol. Chem., 241, 257-263 (1966). Arachidonic acid, 5-HETE, LTB4 and PGD2 were quantified with a Berthold LB 2832 autoscanner.
The 5-lipoxygenase and LTA4 synthetase activities were further studied under the following conditions. An additional centrifugation of the RBL-1 supernatant was run at 100,000× g for 60 min, to remove the particulate cyclooxygenase activity. Sample incubation was done under conditions similar to those described above, i.e., 2 mM CaCl2 and […] arachidonic acid-1-^14 C, however, with an incubation time of 5 min at 5° C. Under these conditions, only the 5-lipoxygenase pathway metabolites were detectable. The 5-HETE and di-HETEs were formed at a linear rate, and substantial amounts of the arachidonic acid-1-^14 C substrate were utilized.

[3] = tested on: Arachidonic Acid-Induced Inflammation of the Mouse Ear; assay: Arachidonic acid-induced mouse ear inflammation; type: in vivo, mouse (male Balb/c); details: for inhibition in vivo at 50 mg/kg: Mus musculus, 1 h, Table 7A, read-out: % Inhibition of Ear Swelling
Source text: as §1, §2
Arachidonic acid in acetone ([…]) was applied to the inner surface of the left ear. The thickness of both ears was then measured with a dial micrometer one hour after treatment, and the data were expressed as the change in thickness (10^-3 cm) between treated and untreated ears.
Test compounds were given orally in 0.5% tragacanth at the times indicated in the text prior to the topical application of arachidonic acid.
Parenteral administration of compound was accomplished by subcutaneous injection of solution as indicated.

[4] = tested on: LTB4 synthesis by peritoneal exudate cells; assay: Ex vivo production of LTB4 from peritoneal exudate cells of drug-treated mice; type: in vivo, mouse; details: for inhibition at 50 mg/kg: Mus musculus, po, 50 mg/kg p.o.
Source text: In the following Examples where mice were used, they were male Balb/c mice (20-28 g), and where rats were used, they were male Lewis rats (180-210 g). All mice and rats were obtained from Charles River Breeding Laboratories, Kingston, N.Y. Within a single experiment, mice and rats were sex and age matched. Auranofin, phenidone, indomethacin, naproxen, and ibuprofen were each used as the free base. The compounds of Formula (I) were used either as the free base or in the appropriate salt form. Levamisole was used as the hydrochloride salt. […] Nordihydroguaiaretic acid (NDGA) was solubilized in dimethylacetamide and diluted with olive oil for subcutaneous administration. Carrageenan-induced peritoneal exudate cells from normal or drug-treated mice were washed and suspended in 2.2 ml of phosphate buffered saline. […] The cell preparation was centrifuged at 1500 rpm for 10 min and the supernatant was extracted using a C-18 silica column. […] A tetrahydrofuran, methanol, water, acetic acid (25:30:45: 0.1) solvent system, adjusted to pH 5.5 with ammonium hydroxide, was used at a flow rate of 0.7 ml/min. Cell derived LTB4 was quantified utilizing standard curves constructed with known amounts of synthetic LTB4.

SMILES | IC50 [2] [µM] | inhibition in vivo at 50 mg/kg ([3]; 50 mg/kg s.c. or i.p.) [%] | other results
CC(=O)OC[C@H]1O[C@@H]([S-])[C@H](OC(C)=O)[C@@H](OC(C)=O)[C@@H]1OC(C)=O.CCP(CC)CC.[Au+] [Auranofin] | – | – | % Change (PMN) ([1]; 2 mg Au/kg, p.o., Table 3): -6%; PMN (Mean ± S.D.) ([1]; 2 mg Au/kg, p.o., Table 3): 7.50 ± 1.57 × 10^-5 /ml; PMN infiltration, result in words [1]: did not impair inflammatory cell infiltration
CCCNc1ccc(-c2nc3n(c2-c2ccncc2)CCS3)cc1 [Compound 2, 6-(4-(1-propylamino)phenyl)-5-(4-pyridyl)-2,3-dihydroimidazo[2,1-b]thiazole] | 7 | 23 | –
c1cc(N2CCCC2)ccc1-c1nc2n(c1-c1ccc(N3CCCC3)cc1)CCS2 [Compound 3, 5,6-bis(4-(1-pyrrolidinyl)phenyl)-2,3-dihydroimidazo[2,1-b] thiazole] | 0.1 | 44 | –
c1cc(-c2c(-c3ccc4c(c3)OCO4)nc3n2CCS3)ccn1 [Compound 5] | 10 | – | –
CN(C)c1ccc(-c2c(-c3ccc(F)cc3)nc3n2CCS3)cc1 [Compound 10, 5-(4-Dimethylaminophenyl)-6-(4-fluorophenyl)-2,3-dihydroimidazo[2,1-b]-thiazole] | 1.5 | 7 | –
c1cc(-c2nc3n(c2-c2ccncc2)CCS3)ccn1 [Compound 11, 5,6-Bis(4-pyridyl)-2,3-dihydroimidazo(2,1-b) thiazole] | 33 | 29 | –
N#Cc1ccc(-c2nc3n(c2-c2ccc(C#N)cc2)CCS3)cc1 [Compound 13, 5,6-bis(4-cyanophenyl)-2,3-dihydroimidazo[2,1-b]thiazole] | 15 | 50 | –
FC(F)(F)c1ccc(-c2nc3n(c2-c2ccc(C(F)(F)F)cc2)CCS3)cc1 [Compound 15] | 10 | – | –
COc1ccc(-c2nc3n(c2-c2ccc(OC)cc2)CCCS3)cc1 [Compound 20] | 5.6 | 47 | –
COc1ccc(-c2nc3n(c2-c2ccc(OC)cc2)CCS3)cc1 [Compound 21] | 2.8 | – | –
COc1ccc(-c2nc3n(c2-c2ccc(OC)cc2)CCC3)cc1 [Compound 22] | – | 15 | –
Fc1ccc(-c2nc3n(c2-c2ccccn2)CCS3)cc1 [Compound 23, 5-(2-pyridinyl)-6-(4-fluorophenyl)-2,3-dihydroimidazo[2,1-b]thiazole] | 42 | 65 | –
Fc1ccc(-c2c(-c3ccccn3)nc3n2CCS3)cc1 [Compound 24, 5-(4-fluorophenyl)-6-(2-pyridinyl)-2,3-dihydroimidazo[2,1-b]thiazole] | 20 | 69 | –
[O-][S+]1CCn2c1nc(-c1ccc(F)cc1)c2-c1ccc(F)cc1 (stereo not shown) [Compound 30] | 60 | – | –
CSc1ccc(-c2nc3n(c2-c2ccc(SC)cc2)CCS3)cc1 [Compound 32] | > 100 | – | –
CC(C)Cc1ccc(C(C)C(=O)O)cc1 (stereo not shown) [Ibuprofen, reference compound] | – | – | Mouse ear edema, result in words ([3]; mouse, in vivo): did not exhibit detectable anti-inflammatory activity
c1ccc([C@H]2CN3CCSC3=N2)cc1 [Levamisole] | – | – | PMN infiltration, result in words [1]: did not impair inflammatory cell infiltration
CC(Cc1ccc(O)c(O)c1)C(C)Cc1ccc(O)c(O)c1 (stereo not shown) [NDGA, Nordihydroguaiaretic acid] | – | – | PMN infiltration, result in words [1]: effective
COc1ccc2cc([C@H](C)C(=O)O)ccc2c1 [Naproxen] | – | – | inhibition at 50 mg/kg ([4]; Experiment 1): 0%; inhibition at 50 mg/kg ([4]; Experiment 2): 15%; inhibition at 50 mg/kg ([4]; Experiment 3): 0%; LTB4 production ex vivo, result in words ([4]; mouse, in vivo): inactive

Second part, led by results:

IC50 [2] [µM] | SMILES | inhibition in vivo at 50 mg/kg ([3]; 50 mg/kg s.c. or i.p.) [%] | other results
0.6 | c1cc(N2CCCCC2)ccc1-c1nc2n(c1-c1ccc(N3CCCCC3)cc1)CCS2 [Compound 4, 5,6-bis(4-(1-piperidinyl)phenyl)-2,3-dihydroimidazo[2,1-b] thiazole] | 22 | –
0.6 | CN(C)c1ccc(-c2nc3n(c2-c2ccc(F)cc2)CCS3)cc1 [Compound 6, 6-(4-dimethylaminophenyl)-5-(4-fluorophenyl)-2,3-dihydroimidazo[2,1-b]thiazole] | 48 | –
10 | c1cc(-c2nc3n(c2-c2ccc4c(c2)OCO4)CCS3)ccn1 [Compound 7, 6-(4-pyridyl)-5-(3,4-methylenedioxyphenyl)-2,3-dihydroimidazo [2,1-b]thiazole] | 62 | –
8 | Fc1ccc(-c2nc3n(c2-c2ccc(F)cc2)CCC3)cc1 [Compound 8] | – | inhibition in vivo at 50 mg/kg ([3]; po, 50 mg/kg p.o.): 40%
0.16 | CCN(CC)c1ccc(-c2nc3n(c2-c2ccc(N(CC)CC)cc2)CCS3)cc1 [Compound 9, 5,6-bis(4-N,N-diethylaminophenyl)-2,3-dihydroimidazo [2,1-b]thiazole] | – | inhibition in vivo at 50 mg/kg ([3]; po, 50 mg/kg p.o.): 17%
0.6 | COc1ccc(-c2nc3n(c2-c2ccc(F)cc2)CCS3)cc1 [Compound 14] | 64 | –
1.5 | c1cc2c(cc1-c1nc3n(c1-c1ccc4c(c1)OCO4)CCS3)OCO2 [Compound 16] | – | inhibition in vivo at 50 mg/kg ([3]; po, 50 mg/kg p.o.): 32%
5 | Fc1ccc(-c2nc3n(c2-c2ccc(F)cc2)CCS3)cc1 [Compound 19] | – | inhibition in vivo at 50 mg/kg ([3]; po, 50 mg/kg p.o.): 34%
0.5 | c1cc(-c2c(-c3ccc(N4CCCC4)cc3)nc3n2CCS3)ccn1 [Compound 25, 5-(4-pyridyl)-6-(4-(pyrrolidin-1-yl)-phenyl)-2,3-dihydroimidazo[2,1-b]thiazole] | – | inhibition in vivo at 50 mg/kg ([3]; po, 50 mg/kg p.o.): 17%
< 33 | O=S1(=O)CCn2c1nc(-c1ccc(F)cc1)c2-c1ccc(F)cc1 [Compound 31] | – | –
30 | CC(=O)Nc1ccc(-c2nc3n(c2-c2ccncc2)CCS3)cc1 [Compound 38, 5-(4-pyridyl)-6-(4-acetamidophenyl)-2,3-dihydroimidazo (2,1-b)thiazole] | – | –
